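Grown in 96-well plates, cells were treated for 48 hours with each compound at five concentrations. Insufficient inhibition: endpoint recorded as highest concentration tested. GI50 marks 50% less growth. TGI denotes the concentration required for complete inhibition of growth.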
Columns and labels:
Test in all cases: inhibition of tumour cell growth, NCI panel, 48 h
HT29 colon = test system: HT29 colon
MDA-MB-435 = test system: MDA-MB-435
NCI-H23 lung = test system: NCI-H23 lung
SK-MEL-5 melanoma = test system: SK-MEL-5 melanoma
MOLT-4 leukemia = test system: MOLT-4 leukemia
BT-549 breast = test system: BT-549 breast
CCRF-CEM leukemia = test system: CCRF-CEM leukemia
DU-145 prostate = test system: DU-145 prostate
TK-10 renal = test system: TK-10 renal
KM12 colon = test system: KM12 colon
HCT-15 colon = test system: HCT-15 colon
NCI-H226 lung = test system: NCI-H226 lung
M14 melanoma = test system: M14 melanoma
LOX IMVI melanoma = test system: LOX IMVI melanoma
A549 NSCLC = test system: A549 NSCLC
T-47D breast = test system: T-47D breast
SR leukemia = test system: SR leukemia
CAKI-1 renal = test system: CAKI-1 renal
HCC-2998 colon = test system: HCC-2998 colon
SK-MEL-28 melanoma = test system: SK-MEL-28 melanoma
SK-MEL-2 melanoma = test system: SK-MEL-2 melanoma
SN12C renal = test system: SN12C renal
HOP-92 NSCLC = test system: HOP-92 NSCLC
UO-31 renal = test system: UO-31 renal
EKVX NSCLC = test system: EKVX NSCLC
HOP-62 NSCLC = test system: HOP-62 NSCLC
OVCAR-8 ovarian = test system: OVCAR-8 ovarian
SW-620 colon = test system: SW-620 colon
MDA-MB-231 breast = test system: MDA-MB-231 breast
OVCAR-5 ovarian = test system: OVCAR-5 ovarian
SF-295 CNS = test system: SF-295 CNS
OVCAR-3 ovarian = test system: OVCAR-3 ovarian
UACC-257 melanoma = test system: UACC-257 melanoma
NCI-H460 lung = test system: NCI-H460 lung
OVCAR-4 ovarian = test system: OVCAR-4 ovarian
NCI-H522 lung = test system: NCI-H522 lung
SK-OV-3 ovarian = test system: SK-OV-3 ovarian
HCT-116 colon = test system: HCT-116 colon
NCI/ADR-RES ovarian = test system: NCI/ADR-RES ovarian
SNB-19 CNS = test system: SNB-19 CNS
UACC-62 melanoma = test system: UACC-62 melanoma
RXF 393 renal = test system: RXF 393 renal
PC-3 prostate = test system: PC-3 prostate
786-0 renal = test system: 786-0 renal
HL-60(TB) leukemia = test system: HL-60(TB) leukemia
ACHN renal = test system: ACHN renal
U251 CNS = test system: U251 CNS
SF-268 CNS = test system: SF-268 CNS
COLO 205 colon = test system: COLO 205 colon
K-562 leukemia = test system: K-562 leukemia
SF-539 CNS = test system: SF-539 CNS
HS 578T breast = test system: HS 578T breast
A498 renal = test system: A498 renal
IGROV1 ovarian = test system: IGROV1 ovarian
SNB-75 CNS = test system: SNB-75 CNS

`CCC(C)CN=C(N)c1ccc(N2CCN(c3ccc(C(N)=NCC(C)CC)cc3)CC2)cc1` (stereo not drawn) was tested, and the GI50 (HT29 colon) was 11 µM, the TGI (HT29 colon) was > 100 µM and the GI50 (MDA-MB-435) was 5.48 µM. It also gave a TGI (MDA-MB-435) of 28.5 µM, a GI50 (NCI-H23 lung) of 5.2 µM and a TGI (NCI-H23 lung) of 36.3 µM. It also gave a GI50 (SK-MEL-5 melanoma) of 1.71 µM, a TGI (SK-MEL-5 melanoma) of 12.3 µM and a GI50 (MOLT-4 leukemia) of 14.2 µM. The TGI (MOLT-4 leukemia) was 38.4 µM, the GI50 (BT-549 breast) was 2.91 µM and the TGI (BT-549 breast) was 12.5 µM. It also gave a GI50 (CCRF-CEM leukemia) of 6.09 µM, a TGI (CCRF-CEM leukemia) of 40.7 µM and a GI50 (DU-145 prostate) of 5.72 µM. The TGI (DU-145 prostate) was > 100 µM, the GI50 (TK-10 renal) was 15.1 µM and the TGI (TK-10 renal) was > 100 µM. The GI50 (KM12 colon) was 7.25 µM, the TGI (KM12 colon) was 52 µM and the GI50 (HCT-15 colon) was 26.5 µM. The TGI (HCT-15 colon) was > 100 µM, the GI50 (NCI-H226 lung) was 6.54 µM and the TGI (NCI-H226 lung) was 31.3 µM. For the same compound, the GI50 (M14 melanoma) was 8.64 µM, the TGI (M14 melanoma) was 43.5 µM and the GI50 (LOX IMVI melanoma) was 12.1 µM. The TGI (LOX IMVI melanoma) was 41.8 µM, the GI50 (A549 NSCLC) was 10.5 µM and the TGI (A549 NSCLC) was > 100 µM. The GI50 (T-47D breast) was 18.5 µM, the TGI (T-47D breast) was > 100 µM and the GI50 (SR leukemia) was 0.443 µM. For the same compound, the TGI (SR leukemia) was 3.01 µM, the GI50 (CAKI-1 renal) was 30 µM and the TGI (CAKI-1 renal) was 92.3 µM. The GI50 (HCC-2998 colon) was 11.5 µM, the TGI (HCC-2998 colon) was > 100 µM and the GI50 (SK-MEL-28 melanoma) was 16.9 µM. For the same compound, the TGI (SK-MEL-28 melanoma) was 41.8 µM, the GI50 (SK-MEL-2 melanoma) was 8.67 µM and the TGI (SK-MEL-2 melanoma) was 45.3 µM. It also gave a GI50 (SN12C renal) of 2.3 µM, a TGI (SN12C renal) of 8.89 µM and a GI50 (HOP-92 NSCLC) of 0.29 µM. The TGI (HOP-92 NSCLC) was 8.03 µM, the GI50 (UO-31 renal) was 79.5 µM and the TGI (UO-31 renal) was > 100 µM. For the same compound, the GI50 (EKVX NSCLC) was 0.955 µM, the TGI (EKVX NSCLC) was 23.3 µM and the GI50 (HOP-62 NSCLC) was 4.51 µM. For the same compound, the TGI (HOP-62 NSCLC) was 24.2 µM, the GI50 (OVCAR-8 ovarian) was 5.58 µM and the TGI (OVCAR-8 ovarian) was > 100 µM. For the same compound, the GI50 (SW-620 colon) was 17 µM, the TGI (SW-620 colon) was > 100 µM and the GI50 (MDA-MB-231 breast) was 6.19 µM. For the same compound, the TGI (MDA-MB-231 breast) was 37.3 µM, the GI50 (OVCAR-5 ovarian) was 33 µM and the TGI (OVCAR-5 ovarian) was > 100 µM. It also gave a GI50 (SF-295 CNS) of 2.9 µM, a TGI (SF-295 CNS) of 17.4 µM and a GI50 (OVCAR-3 ovarian) of 3.45 µM. The TGI (OVCAR-3 ovarian) was 35.4 µM, the GI50 (UACC-257 melanoma) was 20.3 µM and the TGI (UACC-257 melanoma) was > 100 µM. For the same compound, the GI50 (NCI-H460 lung) was 3.34 µM, the TGI (NCI-H460 lung) was 19.1 µM and the GI50 (OVCAR-4 ovarian) was 19.3 µM. The TGI (OVCAR-4 ovarian) was > 100 µM, the GI50 (NCI-H522 lung) was 6.49 µM and the TGI (NCI-H522 lung) was 27.2 µM. It also gave a GI50 (SK-OV-3 ovarian) of 23.1 µM, a TGI (SK-OV-3 ovarian) of 79.8 µM and a GI50 (HCT-116 colon) of 8.51 µM. For the same compound, the TGI (HCT-116 colon) was 60 µM, the GI50 (NCI/ADR-RES ovarian) was 85.6 µM and the TGI (NCI/ADR-RES ovarian) was > 100 µM. For the same compound, the GI50 (SNB-19 CNS) was 12.9 µM, the TGI (SNB-19 CNS) was 69.2 µM and the GI50 (UACC-62 melanoma) was 11.4 µM. The TGI (UACC-62 melanoma) was 28.1 µM, the GI50 (RXF 393 renal) was 15.9 µM and the TGI (RXF 393 renal) was 96.7 µM. It also gave a GI50 (PC-3 prostate) of 7.56 µM, a TGI (PC-3 prostate) of 69.3 µM and a GI50 (786-0 renal) of 7.33 µM. The TGI (786-0 renal) was 87.3 µM, the GI50 (HL-60(TB) leukemia) was 10.9 µM and the TGI (HL-60(TB) leukemia) was 39.9 µM. The GI50 (ACHN renal) was 48 µM, the TGI (ACHN renal) was > 100 µM and the GI50 (U251 CNS) was 3.69 µM. The TGI (U251 CNS) was 19.4 µM, the GI50 (SF-268 CNS) was 3.93 µM and the TGI (SF-268 CNS) was 17.4 µM. For the same compound, the GI50 (COLO 205 colon) was 23.4 µM, the TGI (COLO 205 colon) was > 100 µM and the GI50 (K-562 leukemia) was 2.84 µM. For the same compound, the TGI (K-562 leukemia) was 14 µM.

`CCCCCN1C(=O)/C(=c2\sc3n(c2=O)C2C(NN=3)N(CC)C(=O)N2CC)c2ccccc21` (stereo not drawn) was tested, and the GI50 (HT29 colon) was 1.65 µM, the TGI (HT29 colon) was 3.02 µM and the GI50 (MDA-MB-435) was 0.32 µM. For the same compound, the TGI (MDA-MB-435) was 1.08 µM, the GI50 (NCI-H23 lung) was 1.83 µM and the TGI (NCI-H23 lung) was 5.23 µM. It also gave a GI50 (BT-549 breast) of 2.41 µM, a TGI (BT-549 breast) of 10.7 µM and a GI50 (DU-145 prostate) of 2.01 µM. The TGI (DU-145 prostate) was 4.52 µM, the GI50 (TK-10 renal) was 1.8 µM and the TGI (TK-10 renal) was 3.44 µM. It also gave a GI50 (M14 melanoma) of 1.28 µM, a TGI (M14 melanoma) of 3.98 µM and a GI50 (SF-539 CNS) of 1.3 µM. It also gave a TGI (SF-539 CNS) of 2.61 µM, a GI50 (SK-MEL-2 melanoma) of 1.55 µM and a TGI (SK-MEL-2 melanoma) of 3.3 µM. The GI50 (HOP-92 NSCLC) was 1.22 µM, the TGI (HOP-92 NSCLC) was 3.72 µM and the GI50 (HOP-62 NSCLC) was 1.62 µM. It also gave a TGI (HOP-62 NSCLC) of 3.83 µM, a GI50 (HS 578T breast) of 1.03 µM and a TGI (HS 578T breast) of 4.48 µM. It also gave a GI50 (MDA-MB-231 breast) of 1.87 µM, a TGI (MDA-MB-231 breast) of 4.34 µM and a GI50 (A498 renal) of 0.274 µM. For the same compound, the TGI (A498 renal) was 1.67 µM, the GI50 (SF-295 CNS) was 0.833 µM and the TGI (SF-295 CNS) was 3.21 µM. The GI50 (IGROV1 ovarian) was 1.65 µM, the TGI (IGROV1 ovarian) was 4.15 µM and the GI50 (OVCAR-3 ovarian) was 1.41 µM. The TGI (OVCAR-3 ovarian) was 3.01 µM, the GI50 (SNB-75 CNS) was 0.26 µM and the TGI (SNB-75 CNS) was 1.37 µM. The GI50 (NCI-H522 lung) was 0.754 µM, the TGI (NCI-H522 lung) was 2.29 µM and the GI50 (SK-OV-3 ovarian) was 1.44 µM. For the same compound, the TGI (SK-OV-3 ovarian) was 2.92 µM, the GI50 (SNB-19 CNS) was 1.88 µM and the TGI (SNB-19 CNS) was 5.25 µM. It also gave a GI50 (UACC-62 melanoma) of 1.06 µM, a TGI (UACC-62 melanoma) of 3.29 µM and a GI50 (RXF 393 renal) of 0.798 µM. It also gave a TGI (RXF 393 renal) of 2.83 µM, a GI50 (786-0 renal) of 1.59 µM and a TGI (786-0 renal) of 3.27 µM. The GI50 (HL-60(TB) leukemia) was 1.91 µM, the TGI (HL-60(TB) leukemia) was 4.07 µM and the GI50 (ACHN renal) was 1.17 µM. For the same compound, the TGI (ACHN renal) was 2.58 µM, the GI50 (U251 CNS) was 1.31 µM and the TGI (U251 CNS) was 2.72 µM. For the same compound, the GI50 (SF-268 CNS) was 1.49 µM, the TGI (SF-268 CNS) was 3.77 µM and the GI50 (COLO 205 colon) was 1.55 µM. The TGI (COLO 205 colon) was 3.56 µM.

From PubChem BioAssay (NCI)
